Several values for one entry are separate records, joined by “and”; a condition that tells them apart may be missing. Equal values may be shown once. Entries after “also recorded” stand apart in the source; their conditions may differ.
Assays:
[1] = mouse, in vivo
Method: LNPs were injected into mice via the tail vein (ICR female, IV, 0.5 mg mRNA/kg), then mice were anesthetized under carbon dioxide at different time (e.g., 6 h, 24 h, and 48 h) after administration and sacrificed via cardiac puncture. Liver tissue were collected immediately, and then washed by ice-cold saline. Liver samples were weighed and homogenized in ice water bath by adding pre-chilled 20% methanol-water (v/v) at 2˜8° C. with the ratio of 1:5 (w/v). The homogenized tissue samples were stored in −90˜−60° C. freezer prior to analysis.
All liver tissue homogenate samples were allowed to thaw at room temperature. An aliquot of 50 μL of sample was added with 50 μL MgCl2 (2M), then added with ACN which contains of Verapamil, 5 ng mL-1 and Glibenclamide, 50 ng mL-1 and Diclofenac, 200 ng mL^−1 and Tolbutamide, 200 ng mL^−1 for protein precipitation, then centrifuged at 13000 rpm for 8 min. Then 100 μL of supernatant was added with 100 μL water, then vortexed well. An aliquot of 5 μL of the mixture was injected into the LC-MS/MS system.

[2] = Encapsulation efficiency of lipid nanoparticles (Quant-it Ribogreen RNA assay); type: physicochemical; conditions: LNP comprising the compound, luciferase mRNA
Outline: (§1)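 LNPs of cationic lipid:DSPC:cholesterol:PEG-lipid (50:10:38.5:1.5 molar) with mRNA in 10–50 mM citrate pH 4, microfluidic mixing at 1:3 ethanol:aqueous, lipid:mRNA weight ratio ~10:1–30:1, dialysed into DPBS and 0.2 μm filtered. Size by DLS, 173° backscatter; encapsulation efficiency by Ribogreen assay.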

[3] = Apparent pKa of LNP formulations (TNS fluorescence assay); type: physicochemical; conditions: LNP formulation, TNS assay (Table 3)
Outline: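 LNPs (cationic lipid/DSPC/cholesterol/DMG-PEG 50/10/38.5/1.5 mol %) diluted to 0.1 mg/mL total lipid in citrate/phosphate/borate/NaCl buffers spanning pH 3–9 with TNS. Fluorescence (ex 325, em 435 nm) read at room temperature; pKa taken as the pH at half-maximal intensity from sigmoidal fit.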

[4] = system: luciferase mRNA expression; experiment: Animal Study 2: bioluminescence of dissected organs; type: in vivo, Balb/c mice
Method: (§2) Lipid nanoparticles comprising compounds in the following table encapsulating mRNA encoding luciferase were systemically administered to 6-8 week old female Balb/c mice (Charles River Lab, ZheJiang) at 0.25 mg/kg dose by tail vein injection and mice blood were sampled at specific time points (e.g., 6 hours) post administration. Optical imaging was performed using the IVIS Spectrum CT device (PerkinElmer Inc., Paris, France). The luminescence level was evaluated by an ROI applied to the injection site zone (Living Image software, PerkinElmer Inc., Paris, France). In addition to the aforementioned tested groups, lipid nanoparticles comprising dilinoleylmethyl-4-dimethylaminobutyrate (other names: DLin-MC3-DMA or MC3) encapsulating luciferase mRNA were similarly administered at the same dose to age and gender comparative groups of mice as a positive control.
Radiance of heart, liver, spleen, lung, kidney, brain and bone marrow were taken at 6 h after administration. The Dissected organs were placed on a black sheet and imaged with IVIS Spectrum CT (PerkinElmer, Hopkinton, MA). To quantify bioluminescence emission signal, identical regions of interest (ROI) were positioned to encircle each organ region, the imaging signal was quantitated as Total Flux [p/s].

[5] = Lipid nanoparticle size and polydispersity by dynamic light scattering; type: physicochemical; conditions: LNP comprising the compound, luciferase mRNA
Outline: as §1

[6] = system: luciferase mRNA expression; experiment: Animal Study 2: luciferase mRNA LNPs i.v. in mice, optical imaging; type: in vivo; conditions: female Balb/c mice, 0.25 mg/kg tail vein injection, e.g. 6 hours; relative to MC3 LNP
Method: as §2
Characteristics of tested lipid nanoparticles, including luciferase expression levels over MC3 measured from the tested group are listed in the table below.

[7] = dissected organ, 6 h after administration, 0.25 mg/kg i.v., ROI 1-3, 0.25 mg/kg

Q: For `CCCCC/C=C\C/C=C\CCCCCCCCC(CCCCCCCC/C=C\C/C=C\CCCCC)OC(=O)CCCN(C)C` [MC3, dilinoleylmethyl-4-dimethylaminobutyrate], which “% Dose Remaining in Liver Tissue, 6 h” value ([1]; 6 h) is on record?
A: The value was 69.39%.

Q: What about the “% Dose Remaining in Liver Tissue, 24 h” value ([1]; 24 h) of the same compound?
A: The value was 61.63%.

Q: What about the “% Dose Remaining in Liver Tissue, 48 h” value ([1]; 48 h) of the same compound?
A: The value was 52.47%.

Q: For `CCCCCCCCSSCCOC(=O)CCCCCN(CCCCCO)CCCCC(COC(=O)CCCCCCC)COC(=O)CCCCCCC` [Compound 76], which Encapsulation efficiency [2] is on record?
A: The Encapsulation efficiency was 88.12%.

Q: What about the “Apparent pKa” value [3] of the same compound?
A: Its value is 6.762.

Q: What about the “Total Flux [p/s], Brain” value [4, 7] of the same compound?
A: Its value is 4.60E+06 p/s and 4.15E+06 p/s and 5.13E+06 p/s.

Q: What about the “Total Flux [p/s], Liver” value [4, 7] of the same compound?
A: The value was 1.40E+09 p/s and 9.82E+08 p/s and 1.38E+09 p/s.

Q: And the “Total Flux [p/s], Lung” value [4, 7]?
A: The value was 5.18E+06 p/s and 5.48E+06 p/s and 4.33E+06 p/s.

Q: And the “Total Flux [p/s], bone marrow” value [4, 7]?
A: Its value is 2.09E+06 p/s and 3.07E+06 p/s and 2.94E+06 p/s.

Q: And the “luciferase expression in organs (in words)” value ([4]; nanoparticle comprising the compound, organs 6 h after administration)?
A: Its value is “significant transduction and luciferase expression were observed in liver and spleen; also recorded: high absolute expression in the heart, spleen, lung, kidney, brain”.

Q: And the Polydispersity [5]?
A: The Polydispersity was 0.069.

Q: What about the “Size (nm)” value [5] of the same compound?
A: The value was 113.16 nm.

Q: And the “luciferase expression over MC3” value [6]?
A: The value was “B (≥1 and <2)”.

From patent US20240238212A1, “LIPID COMPOUNDS AND LIPID NANOPARTICLE COMPOSITIONS” (SUZHOU ABOGEN BIOSCIENCES CO., LTD., priority 2022, published 2024)
